Measurements from ChEMBL document CHEMBL3739345, “Design and synthesis of potent and selective inhibitors of BRD7 and BRD9 bromodomains” (Medchemcomm, 2015).
pIC50: −log10 of the molar value. Activity calls are given as the source filed them. The rule behind the calls is not given here.

Assays:
[1] = biological target: T1, Bromodomain adjacent to zinc finger domain protein 2B (Homo sapiens, UniProt Q9UIF8); assay: Binding affinity to human BAZ2B at 10 uM by differential scanning fluorimetry
[2] = biological target: T2, Bromodomain-containing protein 7 (Homo sapiens) (UniProt Q9NPI1); assay: Binding affinity to human BRD7 assessed as change in melting temperature at 10 uM by differential scanning fluorimetry
T2 sequence (whole entry): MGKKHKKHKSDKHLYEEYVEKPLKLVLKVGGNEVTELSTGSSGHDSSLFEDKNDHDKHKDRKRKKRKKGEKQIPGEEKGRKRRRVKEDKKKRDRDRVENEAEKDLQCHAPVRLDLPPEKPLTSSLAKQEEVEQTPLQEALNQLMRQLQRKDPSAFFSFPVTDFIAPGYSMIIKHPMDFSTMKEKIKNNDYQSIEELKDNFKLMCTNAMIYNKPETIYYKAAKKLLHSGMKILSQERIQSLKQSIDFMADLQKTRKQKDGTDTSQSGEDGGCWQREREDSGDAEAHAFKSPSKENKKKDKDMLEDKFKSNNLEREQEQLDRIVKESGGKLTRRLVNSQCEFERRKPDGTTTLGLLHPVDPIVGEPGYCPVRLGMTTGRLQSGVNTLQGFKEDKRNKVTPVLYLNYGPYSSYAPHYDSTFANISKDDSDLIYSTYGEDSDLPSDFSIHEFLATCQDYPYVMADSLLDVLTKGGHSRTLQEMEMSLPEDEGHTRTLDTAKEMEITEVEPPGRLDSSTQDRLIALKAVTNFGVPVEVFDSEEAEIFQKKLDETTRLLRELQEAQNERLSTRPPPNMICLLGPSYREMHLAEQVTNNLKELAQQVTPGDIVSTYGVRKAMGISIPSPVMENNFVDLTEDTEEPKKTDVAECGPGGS

[3] = biological target: Bromodomain-containing protein 3 (Homo sapiens) (UniProt Q15059); assay: Binding affinity to human BRD3 at 10 uM by differential scanning fluorimetry
[4] = biological target: Histone acetyltransferase p300 (Homo sapiens) (UniProt Q09472); assay: Binding affinity to human p300 assessed as change in melting temperature at 10 uM by differential scanning fluorimetry
[5] = biological target: Nucleosome-remodeling factor subunit BPTF (Homo sapiens) (UniProt Q12830); assay: Binding affinity to human FALZ assessed as change in melting temperature at 10 uM by differential scanning fluorimetry
[6] = biological target: Bromodomain-containing protein 4 (Homo sapiens, UniProt O60885); assay: Binding affinity to human BRD4 assessed as change in melting temperature at 10 uM by differential scanning fluorimetry
[7] = biological target: T1, Bromodomain adjacent to zinc finger domain protein 2B; assay: Inhibition of human BAZ2B by alpha screen assay
[8] = biological target: CREB-binding protein (Homo sapiens) (UniProt Q92793); assay: Binding affinity to human CBP assessed as change in melting temperature at 10 uM by differential scanning fluorimetry
[9] = biological target: T3, Bromodomain-containing protein 9 (Homo sapiens, UniProt Q9H8M2); assay: Inhibition of human BRD9 by alpha screen assay
T3 sequence (Q9H8M2 whole entry): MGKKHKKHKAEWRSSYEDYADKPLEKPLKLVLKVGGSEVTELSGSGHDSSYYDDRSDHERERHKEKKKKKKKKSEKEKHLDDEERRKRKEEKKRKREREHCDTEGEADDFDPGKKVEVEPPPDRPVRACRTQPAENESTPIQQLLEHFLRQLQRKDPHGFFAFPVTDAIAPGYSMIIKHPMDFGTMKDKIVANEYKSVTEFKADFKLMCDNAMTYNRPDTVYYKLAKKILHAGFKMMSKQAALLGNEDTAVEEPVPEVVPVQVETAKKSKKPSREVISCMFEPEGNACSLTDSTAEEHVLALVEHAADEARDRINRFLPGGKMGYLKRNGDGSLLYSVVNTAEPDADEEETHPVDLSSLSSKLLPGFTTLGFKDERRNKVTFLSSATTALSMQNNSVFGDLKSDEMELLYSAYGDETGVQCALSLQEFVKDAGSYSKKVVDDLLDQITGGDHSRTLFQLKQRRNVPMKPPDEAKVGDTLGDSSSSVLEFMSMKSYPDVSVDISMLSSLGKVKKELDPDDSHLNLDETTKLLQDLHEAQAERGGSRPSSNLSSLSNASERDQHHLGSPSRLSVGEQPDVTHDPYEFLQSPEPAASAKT

[10] = biological target: T4, Bromodomain-containing protein 9 (Homo sapiens) (UniProt Q9H8M2); assay: Binding affinity to human BRD9 assessed as change in melting temperature at 10 uM by differential scanning fluorimetry
T4 sequence (whole entry): T3 sequence (Q9H8M2 whole entry)

[11] = biological target: T5, Bromodomain-containing protein 1 (Homo sapiens) (UniProt O95696); assay: Binding affinity to human BRD1 at 10 uM by differential scanning fluorimetry
T5 sequence (whole entry): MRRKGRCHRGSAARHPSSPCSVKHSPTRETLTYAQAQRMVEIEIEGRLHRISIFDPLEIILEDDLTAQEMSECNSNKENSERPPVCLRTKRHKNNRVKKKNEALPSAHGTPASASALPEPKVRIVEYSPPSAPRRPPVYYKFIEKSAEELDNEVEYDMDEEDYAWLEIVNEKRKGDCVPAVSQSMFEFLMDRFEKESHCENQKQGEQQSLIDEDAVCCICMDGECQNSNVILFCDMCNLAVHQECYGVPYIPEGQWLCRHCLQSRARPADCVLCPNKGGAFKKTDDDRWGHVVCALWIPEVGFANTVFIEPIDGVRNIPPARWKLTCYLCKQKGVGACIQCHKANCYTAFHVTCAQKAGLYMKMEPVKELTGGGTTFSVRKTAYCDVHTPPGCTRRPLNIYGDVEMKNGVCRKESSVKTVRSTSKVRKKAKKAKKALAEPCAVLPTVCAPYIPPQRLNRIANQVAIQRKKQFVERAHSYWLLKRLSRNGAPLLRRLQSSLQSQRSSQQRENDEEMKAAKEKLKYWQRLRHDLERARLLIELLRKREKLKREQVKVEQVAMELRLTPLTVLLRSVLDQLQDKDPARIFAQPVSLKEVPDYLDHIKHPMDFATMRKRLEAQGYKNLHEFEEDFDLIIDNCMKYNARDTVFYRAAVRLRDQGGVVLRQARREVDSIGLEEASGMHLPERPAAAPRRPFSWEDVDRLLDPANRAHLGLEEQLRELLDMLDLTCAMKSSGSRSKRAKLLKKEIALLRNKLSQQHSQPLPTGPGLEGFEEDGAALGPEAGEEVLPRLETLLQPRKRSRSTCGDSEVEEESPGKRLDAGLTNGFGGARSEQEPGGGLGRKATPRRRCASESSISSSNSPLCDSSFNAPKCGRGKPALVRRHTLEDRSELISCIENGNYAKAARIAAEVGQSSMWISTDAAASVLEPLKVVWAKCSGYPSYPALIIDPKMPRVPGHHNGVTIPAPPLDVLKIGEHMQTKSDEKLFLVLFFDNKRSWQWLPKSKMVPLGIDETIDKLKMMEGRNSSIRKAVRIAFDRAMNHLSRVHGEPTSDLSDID

[12] = biological target: Bromodomain adjacent to zinc finger domain protein 2A (Homo sapiens) (UniProt Q9UIF9); assay: Binding affinity to human BAZ2A at 10 uM by differential scanning fluorimetry
Bromodomain adjacent to zinc finger domain protein 2A (Homo sapiens), sequence (Q9UIF9 whole entry, the tested form may be a part): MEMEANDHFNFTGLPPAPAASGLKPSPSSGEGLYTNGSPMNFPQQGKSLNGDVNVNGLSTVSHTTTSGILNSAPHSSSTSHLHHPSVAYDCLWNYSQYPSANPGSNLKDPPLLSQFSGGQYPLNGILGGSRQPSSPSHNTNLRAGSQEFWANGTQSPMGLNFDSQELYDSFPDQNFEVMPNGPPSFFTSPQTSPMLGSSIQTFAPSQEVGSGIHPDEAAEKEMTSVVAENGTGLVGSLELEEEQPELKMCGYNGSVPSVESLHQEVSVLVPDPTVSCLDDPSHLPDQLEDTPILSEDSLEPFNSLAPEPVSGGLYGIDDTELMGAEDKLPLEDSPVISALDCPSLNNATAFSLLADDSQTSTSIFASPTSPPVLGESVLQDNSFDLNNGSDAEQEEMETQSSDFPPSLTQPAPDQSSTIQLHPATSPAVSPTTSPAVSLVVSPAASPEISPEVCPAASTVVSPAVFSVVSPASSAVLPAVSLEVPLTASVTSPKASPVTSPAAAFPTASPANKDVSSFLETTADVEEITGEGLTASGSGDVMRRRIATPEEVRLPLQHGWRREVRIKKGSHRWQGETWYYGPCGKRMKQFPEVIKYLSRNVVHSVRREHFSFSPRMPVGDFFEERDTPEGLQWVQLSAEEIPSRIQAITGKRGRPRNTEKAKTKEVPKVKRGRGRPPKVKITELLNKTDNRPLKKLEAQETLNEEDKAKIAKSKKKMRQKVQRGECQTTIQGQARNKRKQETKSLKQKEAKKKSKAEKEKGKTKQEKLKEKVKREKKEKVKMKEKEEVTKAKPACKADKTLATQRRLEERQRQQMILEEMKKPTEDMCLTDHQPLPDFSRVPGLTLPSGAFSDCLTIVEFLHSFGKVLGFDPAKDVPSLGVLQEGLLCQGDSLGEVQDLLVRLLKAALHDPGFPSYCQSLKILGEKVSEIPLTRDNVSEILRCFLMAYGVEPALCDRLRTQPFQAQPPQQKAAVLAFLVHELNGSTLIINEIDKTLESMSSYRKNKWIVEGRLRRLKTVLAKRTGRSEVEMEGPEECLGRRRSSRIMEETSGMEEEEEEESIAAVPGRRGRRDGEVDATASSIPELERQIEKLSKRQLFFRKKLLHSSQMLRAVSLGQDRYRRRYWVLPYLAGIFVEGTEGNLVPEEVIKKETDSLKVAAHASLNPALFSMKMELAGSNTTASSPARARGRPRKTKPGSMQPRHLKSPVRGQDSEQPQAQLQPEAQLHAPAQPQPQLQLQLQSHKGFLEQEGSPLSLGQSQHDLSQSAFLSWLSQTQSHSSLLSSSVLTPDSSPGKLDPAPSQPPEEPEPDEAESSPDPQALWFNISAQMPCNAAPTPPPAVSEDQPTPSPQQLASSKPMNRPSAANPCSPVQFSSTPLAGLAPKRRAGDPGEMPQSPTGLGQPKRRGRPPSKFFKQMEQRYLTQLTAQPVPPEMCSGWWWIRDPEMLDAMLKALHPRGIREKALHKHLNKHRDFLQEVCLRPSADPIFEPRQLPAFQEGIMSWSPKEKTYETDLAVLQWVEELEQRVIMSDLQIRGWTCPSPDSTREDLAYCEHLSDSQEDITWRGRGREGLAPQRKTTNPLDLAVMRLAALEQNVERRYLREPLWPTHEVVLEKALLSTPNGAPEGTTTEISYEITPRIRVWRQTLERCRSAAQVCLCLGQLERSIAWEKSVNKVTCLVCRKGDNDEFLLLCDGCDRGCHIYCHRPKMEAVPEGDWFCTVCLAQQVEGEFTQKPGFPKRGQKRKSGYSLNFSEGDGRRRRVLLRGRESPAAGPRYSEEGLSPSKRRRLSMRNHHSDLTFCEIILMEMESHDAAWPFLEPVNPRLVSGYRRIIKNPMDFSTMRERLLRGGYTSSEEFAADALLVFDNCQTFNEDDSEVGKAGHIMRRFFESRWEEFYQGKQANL

T1 sequence (Q9UIF8 whole entry, the tested form may be a part): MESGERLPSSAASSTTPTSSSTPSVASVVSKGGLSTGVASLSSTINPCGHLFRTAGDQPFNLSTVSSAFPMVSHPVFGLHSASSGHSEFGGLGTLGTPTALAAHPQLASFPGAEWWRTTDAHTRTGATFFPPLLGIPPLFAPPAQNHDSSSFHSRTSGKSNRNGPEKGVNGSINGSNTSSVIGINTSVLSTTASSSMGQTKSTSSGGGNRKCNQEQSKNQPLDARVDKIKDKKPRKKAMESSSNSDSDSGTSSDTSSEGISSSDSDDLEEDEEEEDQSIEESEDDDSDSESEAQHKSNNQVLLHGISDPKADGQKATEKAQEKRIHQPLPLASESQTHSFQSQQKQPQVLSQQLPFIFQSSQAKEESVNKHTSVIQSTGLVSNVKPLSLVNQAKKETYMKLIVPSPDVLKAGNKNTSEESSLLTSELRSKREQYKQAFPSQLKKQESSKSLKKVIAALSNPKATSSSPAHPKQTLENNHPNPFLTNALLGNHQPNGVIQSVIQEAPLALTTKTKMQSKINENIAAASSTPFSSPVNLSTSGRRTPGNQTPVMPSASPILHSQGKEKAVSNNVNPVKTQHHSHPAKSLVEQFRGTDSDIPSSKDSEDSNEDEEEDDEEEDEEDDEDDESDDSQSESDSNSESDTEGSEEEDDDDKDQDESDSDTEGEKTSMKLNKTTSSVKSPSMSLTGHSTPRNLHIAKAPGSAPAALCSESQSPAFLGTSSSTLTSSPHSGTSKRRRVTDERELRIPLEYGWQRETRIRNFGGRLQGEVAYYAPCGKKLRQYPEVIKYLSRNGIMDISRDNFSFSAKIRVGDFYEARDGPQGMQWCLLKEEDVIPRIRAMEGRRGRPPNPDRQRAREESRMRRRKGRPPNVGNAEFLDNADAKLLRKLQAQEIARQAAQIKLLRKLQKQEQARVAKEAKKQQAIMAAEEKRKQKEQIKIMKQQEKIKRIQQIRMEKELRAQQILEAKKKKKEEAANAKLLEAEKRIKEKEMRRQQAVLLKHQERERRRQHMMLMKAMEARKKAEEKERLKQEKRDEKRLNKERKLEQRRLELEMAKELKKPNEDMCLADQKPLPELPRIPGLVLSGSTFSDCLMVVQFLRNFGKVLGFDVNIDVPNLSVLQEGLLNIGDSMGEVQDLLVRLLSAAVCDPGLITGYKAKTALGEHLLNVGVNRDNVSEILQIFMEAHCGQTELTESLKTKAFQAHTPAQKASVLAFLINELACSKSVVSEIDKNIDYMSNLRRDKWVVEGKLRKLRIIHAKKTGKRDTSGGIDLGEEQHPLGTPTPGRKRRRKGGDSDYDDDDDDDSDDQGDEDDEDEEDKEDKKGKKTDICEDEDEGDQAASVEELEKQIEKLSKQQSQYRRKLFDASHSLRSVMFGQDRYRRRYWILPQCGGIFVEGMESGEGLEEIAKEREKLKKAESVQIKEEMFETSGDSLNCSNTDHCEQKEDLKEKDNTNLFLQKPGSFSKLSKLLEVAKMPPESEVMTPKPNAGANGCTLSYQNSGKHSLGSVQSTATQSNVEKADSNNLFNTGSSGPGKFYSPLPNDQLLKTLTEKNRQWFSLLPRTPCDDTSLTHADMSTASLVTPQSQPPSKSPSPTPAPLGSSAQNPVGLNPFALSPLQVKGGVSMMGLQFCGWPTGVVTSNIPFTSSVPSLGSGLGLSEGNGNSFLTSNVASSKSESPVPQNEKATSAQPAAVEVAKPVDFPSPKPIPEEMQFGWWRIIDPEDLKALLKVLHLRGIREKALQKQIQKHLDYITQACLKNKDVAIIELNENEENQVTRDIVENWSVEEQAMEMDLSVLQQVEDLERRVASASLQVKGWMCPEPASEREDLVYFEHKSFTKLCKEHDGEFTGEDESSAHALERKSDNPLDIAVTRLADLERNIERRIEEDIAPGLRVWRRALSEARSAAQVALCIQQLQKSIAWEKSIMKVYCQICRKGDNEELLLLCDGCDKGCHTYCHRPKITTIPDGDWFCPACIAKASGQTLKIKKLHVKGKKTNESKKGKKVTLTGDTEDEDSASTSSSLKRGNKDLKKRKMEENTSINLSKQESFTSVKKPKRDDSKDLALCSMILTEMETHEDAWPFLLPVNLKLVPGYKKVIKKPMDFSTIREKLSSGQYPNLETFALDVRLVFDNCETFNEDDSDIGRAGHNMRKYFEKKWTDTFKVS
Bromodomain-containing protein 3 (Homo sapiens), sequence (Q15059 2-726 limits assumed): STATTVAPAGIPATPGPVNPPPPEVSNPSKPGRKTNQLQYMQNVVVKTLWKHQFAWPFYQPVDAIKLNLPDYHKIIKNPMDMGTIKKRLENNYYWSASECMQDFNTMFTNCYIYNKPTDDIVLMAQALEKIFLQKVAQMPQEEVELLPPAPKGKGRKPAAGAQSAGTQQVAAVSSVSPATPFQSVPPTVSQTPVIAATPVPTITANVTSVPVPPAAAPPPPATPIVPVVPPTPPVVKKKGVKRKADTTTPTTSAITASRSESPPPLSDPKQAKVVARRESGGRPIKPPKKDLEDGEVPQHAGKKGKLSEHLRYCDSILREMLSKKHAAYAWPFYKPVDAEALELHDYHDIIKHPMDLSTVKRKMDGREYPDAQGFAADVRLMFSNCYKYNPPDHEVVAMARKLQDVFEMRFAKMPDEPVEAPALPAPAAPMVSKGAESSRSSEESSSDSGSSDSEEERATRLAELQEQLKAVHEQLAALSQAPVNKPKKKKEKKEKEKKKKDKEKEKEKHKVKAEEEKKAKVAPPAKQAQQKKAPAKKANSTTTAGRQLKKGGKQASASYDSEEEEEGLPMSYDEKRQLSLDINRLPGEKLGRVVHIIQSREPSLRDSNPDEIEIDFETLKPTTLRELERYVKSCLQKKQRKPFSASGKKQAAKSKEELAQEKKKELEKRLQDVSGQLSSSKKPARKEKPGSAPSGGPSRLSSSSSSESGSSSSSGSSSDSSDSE

## CC(=O)c1cc(-c2cccc3nccn23)c2cc(N3CCOCC3)ccn12
[1]
  Activity: Active
[2]
  ΔTm: 5.6 °C
[3]
  Activity: Active
[4]
  ΔTm: 2 °C
[5]
  ΔTm: 1.1 °C
[6]
  ΔTm: 1.3 °C
[7]
  pIC50: < 4.00
[8]
  ΔTm: 1.8 °C
[9]
  pIC50: 6.90
[10]
  ΔTm: 4.5 °C
[11]
  Activity: Active
[12]
  Activity: Active
